US20260287575A1, “LABEL-FREE METHODS FOR ASSESSING CELL STATE IN A BIOLOGICAL SAMPLE” (priority 2023, published 2026)

Key:
[1] = test system: mouse liver; assay: Multimodal dOCM and FLIM imaging of tissue viability in mouse liver after shikonin injection; assay type: cell-based; conditions: 100 nL, 6 μM, injected into the center of the tissue; PI staining
Protocol: 100 nL shikonin (6 μM) was injected into the center of the tissue to create necroptosis indicted by the white arrow. Scale bar: 100 μm. […] LMR values are indicated by the color bar.

[2] = test system: CT26 live tumor fragments; assay: FLIM lifetime metabolic ratio (LMR) with ground truth dyes (PI, caspase 3/7) in CT26 live tumor fragments; assay type: cell-based, murine; conditions: for shift in the LMR relative to time zero healthy tissue: normalized LMR; for mode of cell death induced: confirmed with Caspase 3/7 and PI probes
Protocol: Live tumor fragments (LTFs) from flank expressed murine syngeneic CT26 tumors were used to assess cell state using a combination of OCM/dOCM and FLIM as described herein.
CT26 tumors were excised, bisected, and cut into 300×300×300 μm LTFs. These fragments were sorted into 18-well plates for analysis by microscopy. Fragments were incubated at 37° C. in 5% CO2 in non-phenol red containing RPMI for up to four hours before being placed in the microscope. During imaging the sample was maintained in a stage-top incubator at 37° C., 5% CO2, and 95% humidity. Images were taken using a custom four channel multi-photon microscope built on a modified Zeiss Axiovert platform using adapted Bruker components, the PrairieView software package, and electronic components to drive and control the scanning microscope. FLIM data was acquired using an 8 channel Swabian instruments time tagger.
FLIM images were acquired at 50 micron and 75 micron depths into the tissue. Live tumor fragment structure and metabolic status were assessed based on the intrinsically fluorescent metabolic co-factors […] (NAD(P)H), excited at 740 nm, and flavin adenine dinucleotide (FAD), excited at 880 nm. […] LMR histogram data from the fragments was normalized by taking the mode of the resultant histogram data at baseline from healthy tissue and setting this value to 0 across the time course. Data derived from the NAD(P)H, and FAD signals were used to segment the image into individual Voronoi cells seeded from nuclear segmentation. The normalized LMR value was determined for each Voronoi cell.
To qualify observed shifts in the LMR, the ground truth nuclear localizing dyes for cleaved caspase 3/7 activity (Invitrogen) or necrosis (propidium iodide) were added. Voronoi cells that stained positive for propidium iodide were marked as dead and those that were not stained with PI were marked as live.
Cell death via apoptosis was induced using staurosporine. […] (FIG. 8). […] Probe data from Caspase 3/7 and P1 confirmed the shift for LMR values indicating live tissue vs. dead tissue. Cell death via necroptosis was induced using Shikonin. […] PI confirmed the necroptosis signature.
To validate the imaging routine in a model with clinical relevancy, CT26 mLTFs were treated with a combination of […] (3MA) and doxorubicin over a duration of 48 hours (FIG. 10). For this, mLTFs were imaged every 24 hours following treatment for longitudinal assessment of chemotherapeutic efficacy. Linear metabolic shift values obtained in separate CT26 control experiments were applied to Voronoi segmented images to classify individual cells as alive or dead. Data were plotted in a time course indicating the activity of the drug combination.

[3] = test system: mouse liver slice; assay: dOCM imaging of live and dead cells in a mouse liver slice after local staurosporine injection; assay type: cell-based; conditions: local injection of 200 nL, 2 μM in DMSO; 300 μm thick liver slice
Description: A 300 μm thick slice of liver is shown. […] Live cells in the live region (lower part in the xy plane) are highlighted in the dOCM image volume. The live cells show high contrast compared to dead regions in the three orthogonal views (xy, yz, and xz planes). The positions of the yz and xz slices are indicated by the yellow lines in the xy plane. Scale bar: 100 μm.
Live cells were visible in the dOCM image volume. […] Good correlation is observed between the dOCM signal and the expected LMR signatures in this monolithic tissue (FIG. 3). […] In those areas, the dOCM is used to establish a ground truth for living tissue that can in turn be used to qualify the LMR and set specific discreet baseline LMR values for living tissue in these regions. This is as opposed to using a generic, specific value determined with an assumption that the tissue is monolithic.

[4] = test system: primary human lung cancer tissue; assay: Combined dOCM and FLIM imaging of tissue viability in a primary human lung cancer tissue slice; assay type: cell-based; conditions: 10 μM
Protocol: (§1) FIG. 16 presents multimodal imaging of tissue viability with primary human lung cancer tissue using combined dOCM and FLIM. (a) dOCM and LMR images of a human lung cancer tissue slice. (b) dOCM and LMR images of another lung tissue slice from the same sample. The metabolic state of this sample is different from the tissue slice in (a). (c) The tissue slice in (a) was treated with 10 μM staurosporine. The slice was imaged 24 hours after treatment. […] Scale bar: 100 μm.
as §1, with “bar” for “bar:”

SMILES: CC(C)=CC[C@@H](O)C1=CC(=O)c2c(O)ccc(O)c2C1=O [Shikonin]
- mode of cell death created [1]: necroptosis
- shift in the LMR relative to time zero healthy tissue ([2]; CT26 LTFs): large, reproducible shift to the left
- Caspase 3/7 staining ([2]; CT26 LTFs, stressed tissue): little to no Caspase 3/7 staining
- mode of cell death induced ([2]; CT26 LTFs): necroptosis

SMILES: CN[C@@H]1C[C@H]2O[C@@](C)([C@@H]1OC)n1c3ccccc3c3c4c(c5c6ccccc6n2c5c31)C(=O)NC4 [staurosporine]
- tissue viability by dOCM [3]: caused tissue death
- shift in the LMR relative to time zero healthy tissue ([2]; CT26 LTFs): large, reproducible shift to the right
- mode of cell death induced ([2]; CT26 LTFs): apoptosis
- cell state indicated by NADH and FAD phasor plots ([4]; 24 hours after treatment): undergoing apoptosis
- metabolic state (LMR) compared to that prior to treatment ([4]; 24 hours after treatment): shifted
- viable cells revealed by dOCM ([4]; imaged 24 hours after treatment): Less viable cells

SMILES: Cn1cnc(N)c2ncnc1-2 [3-MA]
- PI staining ([2]; CT26 live tumor fragment (FIG. 6)): dead cells
- LMR values of PI-stained cells ([2]; CT26 live tumor fragment treated and stained with PI (FIG. 6)): relatively uniform low LMR values
